The nature of series [1]: Stuttering of a patient treated with pagoclone in a double-blind placebo-controlled panic disorder clinical trial. Type of series: in vivo, human. How it is done:
A patient is enrolled in a clinical trial examining the efficacy and safety of pagoclone, a drug which works at the GABAA receptor, in the treatment of panic disorder, an anxiety disorder. […] The double-blind placebo-controlled trial conceals the drug type until the conclusion of the trial. During the trial the patient is taking 0.60 mg pagoclone/day (0.20 mg t.i.d.). The patient had never before experienced this sort of an effect on their stuttering and they had taken, in the past, other anti-anxiety medications for their psychiatric condition, none of which had such an effect on their stuttering. During the trial, both they and the clinician treating them in the clinical trial notice the reduction in their stuttering, which is documented at their week 2 visit. […] During the trial they also are taking ibuprofen and a prophylactic for urinary tract infections.

The conditions of series [2]: Elliot et al. 1985; cited from earlier work.
The conditions of series [3]: eight-week course, randomized patients; cited from earlier work.

The values that follow come from patent publication US8618127B2, “Methods and compositions for alleviating stuttering” (Endo Pharmaceuticals Solutions Inc., priority 2000, dated 2013).

With `CC(C)CCC(=O)CC1c2ccccc2C(=O)N1c1ccc2ccc(Cl)nc2n1` (single isomer, unassigned; (+)) [pagoclone, (+)2-(7-chloro-1,8-naphthyridine-2-yl)-3-(5-methyl-2-oxo-hexyl)-1-isoindolinone], the “effect on stuttering while taking the drug” value in series [1] (patient, fairly severe stuttering, 0.60 mg pagoclone/day (0.20 mg t.i.d.), documented at week 2 visit) is on record as “significant reduction in their fairly severe stuttering problem”. In addition, the “effect on anxiety and psychiatric condition” value in series [1] (same patient with panic disorder, 0.60 mg pagoclone/day) was “reduction in their anxiety and improvement in their psychiatric condition”. The “stuttering after stopping the drug” value in series [1] (same patient, after stopping pagoclone) is on record as “returns to the pre-drug level within a day”.

`Cc1nnc2n1-c1ccc(Cl)cc1C(c1ccccc1)=NC2` [Alprazolam]: the drug-induced stuttering result in series [2] is reported as “can induce stuttering”.

Take `O=C(CCCN1CCC(O)(c2ccc(Cl)cc2)CC1)c1ccc(F)cc1` [haloperidol]: the “effect on stuttering, objective measures of speech” value in series [3] is “significant improvement”.
